PubChem BioAssay (NCI)
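Compound exposure: 48 hours, 5 concentrations, 96-well plates. The concentration for 50% growth inhibition is given as GI50. TGI marks complete inhibition of growth.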

Columns and labels:
Experiment in all cases: DTP human tumour cell line panel, 48 h
786-0 renal = test system: 786-0 renal
A498 renal = test system: A498 renal
A549 NSCLC = test system: A549 NSCLC
ACHN renal = test system: ACHN renal
BT-549 breast = test system: BT-549 breast
CAKI-1 renal = test system: CAKI-1 renal
CCRF-CEM leukemia = test system: CCRF-CEM leukemia
COLO 205 colon = test system: COLO 205 colon
DU-145 prostate = test system: DU-145 prostate
EKVX NSCLC = test system: EKVX NSCLC
HCC-2998 colon = test system: HCC-2998 colon
HCT-116 colon = test system: HCT-116 colon
HCT-15 colon = test system: HCT-15 colon
HL-60(TB) leukemia = test system: HL-60(TB) leukemia
HOP-62 NSCLC = test system: HOP-62 NSCLC
HOP-92 NSCLC = test system: HOP-92 NSCLC
HS 578T breast = test system: HS 578T breast
HT29 colon = test system: HT29 colon
IGROV1 ovarian = test system: IGROV1 ovarian
K-562 leukemia = test system: K-562 leukemia
KM12 colon = test system: KM12 colon
LOX IMVI melanoma = test system: LOX IMVI melanoma
M14 melanoma = test system: M14 melanoma
MALME-3M melanoma = test system: MALME-3M melanoma
MCF7 breast = test system: MCF7 breast
MDA-MB-231 breast = test system: MDA-MB-231 breast
MDA-MB-435 = test system: MDA-MB-435
MDA-MB-468 breast = test system: MDA-MB-468 breast
MOLT-4 leukemia = test system: MOLT-4 leukemia
NCI-H226 lung = test system: NCI-H226 lung
NCI-H23 lung = test system: NCI-H23 lung
NCI-H460 lung = test system: NCI-H460 lung
NCI-H522 lung = test system: NCI-H522 lung
OVCAR-3 ovarian = test system: OVCAR-3 ovarian
OVCAR-4 ovarian = test system: OVCAR-4 ovarian
OVCAR-5 ovarian = test system: OVCAR-5 ovarian
OVCAR-8 ovarian = test system: OVCAR-8 ovarian
PC-3 prostate = test system: PC-3 prostate
RPMI-8226 leukemia = test system: RPMI-8226 leukemia
RXF 393 renal = test system: RXF 393 renal
SF-268 CNS = test system: SF-268 CNS
SF-295 CNS = test system: SF-295 CNS
SF-539 CNS = test system: SF-539 CNS
SK-MEL-2 melanoma = test system: SK-MEL-2 melanoma
SK-MEL-28 melanoma = test system: SK-MEL-28 melanoma
SK-MEL-5 melanoma = test system: SK-MEL-5 melanoma
SK-OV-3 ovarian = test system: SK-OV-3 ovarian
SN12C renal = test system: SN12C renal
SNB-19 CNS = test system: SNB-19 CNS
SNB-75 CNS = test system: SNB-75 CNS
SR leukemia = test system: SR leukemia
SW-620 colon = test system: SW-620 colon
T-47D breast = test system: T-47D breast
TK-10 renal = test system: TK-10 renal
U251 CNS = test system: U251 CNS
UACC-257 melanoma = test system: UACC-257 melanoma
UACC-62 melanoma = test system: UACC-62 melanoma
UO-31 renal = test system: UO-31 renal

O=C(/C=C/c1ccc(Br)cc1)c1nc2ccccc2n1Cc1ccc(Br)cc1 gave a GI50 (786-0 renal) greater than 100 µM, a TGI (786-0 renal) greater than 100 µM and a GI50 (A498 renal) greater than 100 µM. The TGI (A498 renal) was greater than 100 µM, the GI50 (A549 NSCLC) was greater than 100 µM and the TGI (A549 NSCLC) was greater than 100 µM. For the same molecule, the GI50 (ACHN renal) was greater than 100 µM, the TGI (ACHN renal) was greater than 100 µM and the GI50 (BT-549 breast) was 96 µM. The TGI (BT-549 breast) was greater than 100 µM, the GI50 (CAKI-1 renal) was 53 µM and the TGI (CAKI-1 renal) was greater than 100 µM. For the same molecule, the GI50 (CCRF-CEM leukemia) was 18.2 µM, the TGI (CCRF-CEM leukemia) was greater than 100 µM and the GI50 (COLO 205 colon) was greater than 100 µM. For the same molecule, the TGI (COLO 205 colon) was greater than 100 µM, the GI50 (DU-145 prostate) was greater than 100 µM and the TGI (DU-145 prostate) was greater than 100 µM. For the same molecule, the GI50 (EKVX NSCLC) was greater than 100 µM, the TGI (EKVX NSCLC) was greater than 100 µM and the GI50 (HCC-2998 colon) was greater than 100 µM. For the same molecule, the TGI (HCC-2998 colon) was greater than 100 µM, the GI50 (HCT-116 colon) was 56.6 µM and the TGI (HCT-116 colon) was greater than 100 µM. For the same molecule, the GI50 (HCT-15 colon) was 40.5 µM, the TGI (HCT-15 colon) was greater than 100 µM and the GI50 (HL-60(TB) leukemia) was 24.1 µM. For the same molecule, the TGI (HL-60(TB) leukemia) was greater than 100 µM, the GI50 (HOP-62 NSCLC) was greater than 100 µM and the TGI (HOP-62 NSCLC) was greater than 100 µM. It also gave a GI50 (HOP-92 NSCLC) of 58.6 µM, a TGI (HOP-92 NSCLC) greater than 100 µM and a GI50 (HS 578T breast) greater than 100 µM. For the same molecule, the TGI (HS 578T breast) was greater than 100 µM, the GI50 (HT29 colon) was 68.7 µM and the TGI (HT29 colon) was greater than 100 µM. The GI50 (IGROV1 ovarian) was greater than 100 µM, the TGI (IGROV1 ovarian) was greater than 100 µM and the GI50 (K-562 leukemia) was 39.5 µM. The TGI (K-562 leukemia) was greater than 100 µM, the GI50 (KM12 colon) was 80.5 µM and the TGI (KM12 colon) was greater than 100 µM. The GI50 (LOX IMVI melanoma) was 30.9 µM, the TGI (LOX IMVI melanoma) was greater than 100 µM and the GI50 (M14 melanoma) was greater than 100 µM. The TGI (M14 melanoma) was greater than 100 µM, the GI50 (MALME-3M melanoma) was greater than 100 µM and the TGI (MALME-3M melanoma) was greater than 100 µM. The GI50 (MCF7 breast) was 24.1 µM, the TGI (MCF7 breast) was greater than 100 µM and the GI50 (MDA-MB-231 breast) was 99.1 µM. It also gave a TGI (MDA-MB-231 breast) greater than 100 µM, a GI50 (MDA-MB-435) of 35.6 µM and a TGI (MDA-MB-435) greater than 100 µM. For the same molecule, the GI50 (MDA-MB-468 breast) was 35.9 µM, the TGI (MDA-MB-468 breast) was greater than 100 µM and the GI50 (MOLT-4 leukemia) was 17 µM. The TGI (MOLT-4 leukemia) was greater than 100 µM, the GI50 (NCI-H226 lung) was greater than 100 µM and the TGI (NCI-H226 lung) was greater than 100 µM. It also gave a GI50 (NCI-H23 lung) greater than 100 µM, a TGI (NCI-H23 lung) greater than 100 µM and a GI50 (NCI-H460 lung) of 59.3 µM. It also gave a TGI (NCI-H460 lung) greater than 100 µM, a GI50 (NCI-H522 lung) greater than 100 µM and a TGI (NCI-H522 lung) greater than 100 µM. It also gave a GI50 (OVCAR-3 ovarian) of 35 µM, a TGI (OVCAR-3 ovarian) greater than 100 µM and a GI50 (OVCAR-4 ovarian) greater than 100 µM. For the same molecule, the TGI (OVCAR-4 ovarian) was greater than 100 µM, the GI50 (OVCAR-5 ovarian) was greater than 100 µM and the TGI (OVCAR-5 ovarian) was greater than 100 µM. For the same molecule, the GI50 (OVCAR-8 ovarian) was 97.7 µM, the TGI (OVCAR-8 ovarian) was greater than 100 µM and the GI50 (PC-3 prostate) was 58.6 µM. It also gave a TGI (PC-3 prostate) greater than 100 µM, a GI50 (RPMI-8226 leukemia) of 25.2 µM and a TGI (RPMI-8226 leukemia) greater than 100 µM. It also gave a GI50 (RXF 393 renal) of 86.9 µM, a TGI (RXF 393 renal) greater than 100 µM and a GI50 (SF-268 CNS) greater than 100 µM. It also gave a TGI (SF-268 CNS) greater than 100 µM, a GI50 (SF-295 CNS) greater than 100 µM and a TGI (SF-295 CNS) greater than 100 µM. The GI50 (SF-539 CNS) was greater than 100 µM, the TGI (SF-539 CNS) was greater than 100 µM and the GI50 (SK-MEL-2 melanoma) was greater than 100 µM. For the same molecule, the TGI (SK-MEL-2 melanoma) was greater than 100 µM, the GI50 (SK-MEL-28 melanoma) was greater than 100 µM and the TGI (SK-MEL-28 melanoma) was greater than 100 µM. The GI50 (SK-MEL-5 melanoma) was greater than 100 µM, the TGI (SK-MEL-5 melanoma) was greater than 100 µM and the GI50 (SK-OV-3 ovarian) was greater than 100 µM. The TGI (SK-OV-3 ovarian) was greater than 100 µM, the GI50 (SN12C renal) was greater than 100 µM and the TGI (SN12C renal) was greater than 100 µM. For the same molecule, the GI50 (SNB-19 CNS) was greater than 100 µM, the TGI (SNB-19 CNS) was greater than 100 µM and the GI50 (SNB-75 CNS) was greater than 100 µM. For the same molecule, the TGI (SNB-75 CNS) was greater than 100 µM, the GI50 (SR leukemia) was 28 µM and the TGI (SR leukemia) was greater than 100 µM. For the same molecule, the GI50 (SW-620 colon) was 30 µM, the TGI (SW-620 colon) was greater than 100 µM and the GI50 (T-47D breast) was 24.7 µM. The TGI (T-47D breast) was greater than 100 µM, the GI50 (TK-10 renal) was greater than 100 µM and the TGI (TK-10 renal) was greater than 100 µM. For the same molecule, the GI50 (U251 CNS) was 42.6 µM, the TGI (U251 CNS) was greater than 100 µM and the GI50 (UACC-257 melanoma) was greater than 100 µM. It also gave a TGI (UACC-257 melanoma) greater than 100 µM, a GI50 (UACC-62 melanoma) greater than 100 µM and a TGI (UACC-62 melanoma) greater than 100 µM. The GI50 (UO-31 renal) was 45.9 µM and the TGI (UO-31 renal) was greater than 100 µM.
